From patent US11186577B2, “Vasopressin receptor antagonists and products and methods related thereto” (BlackThorn Therapeutics, Inc., priority 2017, dated 2021)

Tests used:
MDR1 (P-gp) = test: in vitro; conditions: dog, MDCK-MDR1
[1] = target: human Arginine Vasopressin Receptor 1a (AVPR1a) (Homo sapiens (Human), UniProt P37288); test: Vasopressin V1A receptor antagonist assay (AVP-evoked calcium, FLIPR, CHO-AVPR1a cells); type: cell-based; conditions: read-out: V1a IC50
In short: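 CHO cells expressing human AVPR1a, Calcium-6 dye loaded 60-90 min, preincubated with compound 15 min at 37° C., then challenged with AVP at its daily-determined EC80. FLIPR fluorescence; 10-point 1:3 series from 3 μM, duplicates.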

[2] = target: human Oxytocin Receptor (hOTR) (Homo sapiens (Human), UniProt P30559); test: Oxytocin receptor antagonist assay (oxytocin-evoked calcium, FLIPR, CHEM-1-hOTR cells); type: cell-based; conditions: read-out: OT IC50
human Oxytocin Receptor (hOTR), sequence (P30559 whole entry): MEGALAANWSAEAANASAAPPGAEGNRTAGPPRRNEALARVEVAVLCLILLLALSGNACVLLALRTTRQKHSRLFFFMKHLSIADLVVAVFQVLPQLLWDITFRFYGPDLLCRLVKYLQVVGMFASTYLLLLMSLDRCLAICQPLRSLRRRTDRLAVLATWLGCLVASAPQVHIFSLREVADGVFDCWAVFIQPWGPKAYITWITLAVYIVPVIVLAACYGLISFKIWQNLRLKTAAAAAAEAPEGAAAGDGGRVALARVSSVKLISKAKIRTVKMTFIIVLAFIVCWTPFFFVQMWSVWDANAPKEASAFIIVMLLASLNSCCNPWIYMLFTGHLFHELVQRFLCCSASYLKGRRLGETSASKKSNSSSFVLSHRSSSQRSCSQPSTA
In short: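 Antagonist mode in CHEM-1-hOTR cells loaded with Calcium-6 dye; compounds (10-point, 1:3 series) preincubated 15 min at 37 °C, then oxytocin added at daily-determined EC80 in HBSS/20 mM HEPES with 0.1% BSA. Fluorescence (ex 470-495, em 515-575 nm) followed 3 min on FLIPR^TETRA; concentration-dependent reduction of oxytocin response measured.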

MDR1 (P-glycoprotein) = test: MDR1-MDCK effective efflux assay (Transwell, 10 μM, 1 hour), MDR1-MDCK cells; type: in vitro ADME; conditions: dog, MDCK-MDR1, pH 7.4, Papp AB MDR1
Description: (§1) The MDR1-MDCK effective efflux assay was performed as described in the BioFocus Standard Operating Procedure, ADME-SOP-56. Both wild-type (WT) and MDR1-MDCK cells (Solvo Biotechnology) were seeded onto 24-well Transwell plates at 2.35×10^5 cells per well and used in confluent monolayers after a 3 day culture at 37° C. under 5% CO2. For both cell types, test and control compounds (propranolol, vinblastine) were added (10 μM, 0.1% DMSO final, n=2) to donor compartments of the Transwell plate assembly in assay buffer (Hanks balanced salt solution supplemented with 25 mM HEPES, adjusted to pH 7.4) for both apical to basolateral (A>B) and basolateral to apical (B>A) measurements. Incubations were performed at 37° C., with samples removed from both donor and acceptor chambers at T=0 and 1 hour and compound analysed by mass spectrometry (LC-MS/MS) including an analytical internal standard.
(§2) Where V is the volume of each Transwell compartment (apical 125 basolateral 600 and concentrations are the relative MS responses for compound (normalized to internal standard) in the donor chamber before incubation and acceptor chamber at the end of the incubation. Area=area of cells exposed for drug transfer (0.33 cm2).
(§3) Efflux ratios (Papp B>A/Papp A>B) were calculated for each compound from the mean Papp values in each direction for both wild-type and MDR1-MDCK cells.
(§4) In order to confirm the involvement of MDR1 in any efflux seen, an “effective efflux ratio” (EER) was calculated by comparing compound efflux ratios (ER) in the two cell types, i.e. EER=ER(MDR1−MDCK)/ER(wild-type MDCK)
(§5) This ratio illustrates the effect of the over-expressed MDR1 normalised for the background movement of compound through the wild-type cells.
(§6) Lucifer Yellow (LY) was added to the apical buffer in all wells to assess viability of the cell layer. Compound recovery from the wells was determined from MS responses (normalized to internal standard) in donor and acceptor chambers at the end of incubation compared to response in the donor chamber pre-incubation.

MDR1-MDCK cells = test: as above; type: in vitro ADME; conditions: MDCK-MDR1
Description: as §1, §2, §3, §4, §5, §6

[3] = MDR1-MDCK effective efflux assay (Transwell, 10 μM, 1 hour), wild-type MDCK cells; type: in vitro ADME; conditions: dog, MDCK, pH 7.4, Papp AB WT
Description: as §1, §2, §3, §4, §5, §6

[4] = tested on: wild-type (WT) MDCK cells; test: as above; type: in vitro ADME; conditions: MDCK
Description: as §1, §2, §3, §4, §5, §6

human Arginine Vasopressin Receptor 1a (AVPR1a), sequence (P37288 whole entry): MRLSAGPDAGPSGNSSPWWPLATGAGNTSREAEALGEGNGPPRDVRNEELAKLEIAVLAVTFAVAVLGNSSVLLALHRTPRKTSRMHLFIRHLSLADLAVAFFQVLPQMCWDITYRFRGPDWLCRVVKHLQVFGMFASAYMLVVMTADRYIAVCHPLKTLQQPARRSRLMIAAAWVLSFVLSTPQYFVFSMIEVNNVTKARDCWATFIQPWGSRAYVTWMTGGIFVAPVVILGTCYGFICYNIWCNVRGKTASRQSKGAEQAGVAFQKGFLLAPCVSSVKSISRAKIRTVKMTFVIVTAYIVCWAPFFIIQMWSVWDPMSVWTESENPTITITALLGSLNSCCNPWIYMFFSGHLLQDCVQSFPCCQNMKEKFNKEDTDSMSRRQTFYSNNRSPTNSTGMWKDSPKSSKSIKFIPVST

| Structure (SMILES) | Papp A→B at 2 h (MDR1 (P-gp)) [×10⁻⁶ cm/s] | IC50 [1] [µM] | IC50 [2] [µM] | Papp A→B at 1 h, 10 μM (MDR1 (P-glycoprotein)) [×10⁻⁶ cm/s] | MDR1 EER (MDR1-MDCK cells) | MDR1 ER (MDR1-MDCK cells) | Papp A→B at 1 h, 10 μM [3] [×10⁻⁶ cm/s] | WT ER [4] |
| --- | --- | --- | --- | --- | --- | --- | --- | --- |
| O=C(C1CC1)N1CC2(CC(c3nnc4n3-c3ccc(Cl)cc3CN(C3CC3)C4)C2)C1 [compound 226, (6-(8-chloro-5-cyclopropyl-5,6-dihydro-4H-benzo[1,2,4]triazolo[4,3-a][1,4]diazepin-1-yl)-2-azaspiro[3.3]heptan-2-yl)(cyclopropyl)methanone] | < 7 |  |  |  |  |  |  |  |
| CC(=O)N1Cc2cc(Cl)ccc2-n2c(nnc2C2CC3(C2)CN(c2cccc(C#N)n2)C3)C1 [compound 94] |  | < 0.1 | > 1 | < 7 | + | + | 10 to 20 | + |
| CC1c2nnc(C3CC4(C3)CN(c3ccc(F)cn3)C4)n2-c2ccc(Cl)cc2CN1C(=O)OC1CC(F)(F)C1 (stereo not shown) [compound 193, 3,3-difluorocyclobutyl 8-chloro-1-(2-(5-fluoropyridin-2-yl)-2-azaspiro[3.3]heptan-6-yl)-4-methyl-4H-benzo[f][1,2,4]triazolo[4,3-a][1,4]diazepine-5(6H)-carboxylate] |  | < 0.1 | > 1 | > 20 | +++ | +++ | > 20 | +++ |
| O=C(C(F)F)N1Cc2cc(Cl)ccc2-n2c(nnc2C2CC3(C2)CN(c2ccc(F)cn2)C3)C1 [compound 116] |  | < 0.1 | > 1 | < 7 | + | + | > 20 | ++++ |
| O=C(C1CCC1)N1Cc2cc(Cl)ccc2-n2c(nnc2C2CC3(C2)CN(c2ccc(F)cn2)C3)C1 [compound 114] |  | < 0.1 | > 1 | < 7 | + | + | < 7 | + |
| O=C(C1CC1)N1Cc2cc(Cl)ccc2-n2c(nnc2C2CC3(C2)CN(c2ccccn2)C3)C1 [compound 65] |  | < 0.1 | > 1 | < 7 | + | + | > 20 | ++++ |
| CC(=O)N1Cc2cc(Cl)ccc2-n2c(nnc2C2CC3(C2)CN(c2cnccn2)C3)C1 [compound 93] |  | < 0.1 | > 1 | < 7 | + | + | < 7 | + |
| Cc1cccc(N2CC3(CC(c4nnc5n4-c4ccc(Cl)cc4CN(C4CC4)C5)C3)C2)n1 [compound 218] | > 20 | < 0.1 |  |  |  |  |  |  |
| CCC(=O)N1Cc2cc(Cl)ccc2-n2c(nnc2C2CC3(C2)CN(c2cccc(C#N)n2)C3)C1 [compound 125] |  | < 0.1 | > 1 | < 7 | + | + | > 20 | +++ |
| O=C(C1CC1)N1Cc2cc(Cl)ccc2-n2c(nnc2C2CC3(C2)CN(c2ccc(F)cn2)C3)C1 [compound 74] |  | < 0.1 | > 1 | < 7 | + | + | > 20 | +++ |
| CCC(=O)N1Cc2cc(Cl)ccc2-n2c(nnc2C2CC3(C2)CN(c2ncccn2)C3)C1 [compound 107, 1-(8-chloro-1-(2-(pyrimidin-2-yl)-2-azaspiro[3.3]heptan-6-yl)-4H-benzo[f][1,2,4]triazolo[4,3-a][1,4]diazepin-5(6H)-yl)propan-1-one] |  | < 0.1 | > 1 | < 7 | + | + | 10 to 20 | + |
| Fc1cnc(N2CC3(CC(c4nnc5n4-c4ccc(Cl)cc4CN(C4CC4)C5)C3)C2)nc1 [compound 224] | > 20 | < 0.1 |  |  |  |  |  |  |
| Cc1nc(N2CC3(CC(c4nnc5n4-c4ccc(Cl)cc4CN(C4CC4)C5)C3)C2)ncc1F [compound 220] | > 20 | < 0.1 |  |  |  |  |  |  |
| CCC(=O)N1Cc2cc(Cl)ccc2-n2c(nnc2C2CC3(C2)CN(c2cnccn2)C3)C1 [compound 110] |  | < 0.1 | > 1 | < 7 | + | + | 10 to 20 | + |
| CCC(=O)N1Cc2cc(Cl)ccc2-n2c(nnc2C2CC3(C2)CN(C(=O)C2CC2)C3)C1 [compound 16] |  | < 0.1 | > 1 | < 7 | ++ | + | < 7 | + |
| Cc1nc(N2CC3(CC(c4nnc5n4-c4ccc(Cl)cc4CN(C)C5)C3)C2)ccc1F [compound 242] | > 20 | < 0.1 |  |  |  |  |  |  |
| CC(=O)N1Cc2cc(Cl)ccc2-n2c(nnc2C2CC3(C2)CN(c2ccccn2)C3)C1 [compound 73] |  | < 0.1 | > 1 | < 7 | + | + | 10 to 20 | + |
| O=C(N1Cc2cc(Cl)ccc2-n2c(nnc2C2CC3(C2)CN(c2ccc(F)cn2)C3)C1)C1(F)CC1 [compound 156] |  | < 0.1 | > 1 | 10 to 20 | ++ | + | > 20 | +++ |
| CCC(=O)N1Cc2cc(Cl)ccc2-n2c(nnc2C2CC3(C2)CN(c2cccc(F)n2)C3)C1 [compound 113] |  | < 0.1 | > 1 | < 7 | + | + | > 20 | +++ |
| COC(=O)N1Cc2cc(Cl)ccc2-n2c(nnc2C2CC3(C2)CN(c2ncc(F)cn2)C3)C1 [compound 92] |  | < 0.1 | > 1 | 7 to 10 | + | + | > 20 | +++ |
| Clc1ccc2c(c1)CN(C1CC1)Cc1nnc(C3CC4(C3)CN(c3ncccn3)C4)n1-2 [compound 225] | > 20 | < 0.1 |  |  |  |  |  |  |
| Fc1ccc(N2CC3(CC(c4nnc5n4-c4ccc(Cl)cc4CN(CC(F)(F)F)C5)C3)C2)nc1 [compound 259, 8-chloro-1-(2-(5-fluoropyridin-2-yl)-2-azaspiro[3.3]heptan-6-yl)-5-(2,2,2-trifluoroethyl)-5,6-dihydro-4H-benzo[f][1,2,4]triazolo[4,3-a][1,4]diazepine] | > 20 | < 0.1 |  |  |  |  |  |  |
